According to patent US20220295793A1 (priority 2019, published 2022):
Read-outs that look alike come from different tables or passages of the source.

Tests used:
Phytophthora infestans = type: in vivo; conditions: tomatoes, preventive spray, evaluated 3 days after inoculation
cucumber downy mildew = conditions: R. Zhang, J. Pesticide Sci., vol. 39, no. 1, 2014, pages 43-47; cited from earlier work

Row | Compound | Efficacy in % found (Phytophthora infestans; 0.02 ppm a.i.) | Efficacy in % found (Phytophthora infestans; 0.04 ppm a.i.) | Efficacy in % found (Phytophthora infestans; 2.5 ppm a.i.) | Efficacy in % found (Phytophthora infestans; 5 ppm a.i.) | Efficacy in % found (Phytophthora infestans; 10 ppm a.i.) | controlling cucumber downy mildew (cucumber downy mildew)
1 | CS(=O)(=O)Oc1cccc(Cl)c1C1CC(c2csc(C3CCN(C(=O)Cn4nc(C(F)F)cc4C(F)F)CC3)n2)=NO1 (racemic) [(A) fluoxapiprolin, 2-{(5RS)-3-[2-(1-{[3,5-bis(difluoromethyl)-1H-pyrazol-1-yl]acetyl}-4-piperidyl)thiazol-4-yl]-4,5-dihydroisoxazol-5-yl}-3-chlorophenyl methanesulfonate] | 54% | 79% | – | – | – | –
2 | COc1c(F)c(F)c(C(=O)NCc2ncc(C(F)(F)F)cc2Cl)c(F)c1F [(B) fluopimomide, N-{[3-chloro-5-(trifluoromethyl)-2-pyridyl]methyl}-2,3,5,6-tetrafluoro-4-methoxybenzamide] | – | – | 0% | 0% | 0% | highly effective
